Values of other authors in patent US20240269084A1, “DELAYED RELEASE COMPOSITIONS OF DIMETHYL FUMARATE” (Zim Laboratories Limited, priority 2021, published 2024).
Where a name gives a salt, the structure may show the parent alone.

Solubility in water: highly soluble in water
SMILES: COC(=O)/C=C/C(=O)OC [Dimethyl fumarate, dimethyl (E) butenedioate]
